Experimental data reported in PubChem BioAssay AID1963974 (Molecular Pharmacology Branch, DTP, NCI, 2024).
Several values for one entry are separate records, joined by “and”; a condition that tells them apart may be missing. Identical values can stand only once.

Test system: 648629-189-R-J1-PDC spheroids with HUVEC/MSC, viability
Experiment: Anticancer human tumor 648629-189-R-J1-PDC patient-derived bladder carcinoma cell line growth inhibition [PI3K]
Settings: for viability, T/C: stronger effect = lower value
Description: Combinatorial screen of targeted agents with the PI3K inhibitors inavolisib, alpelisib, duvelisib, and copanlisib in multi-cell type tumor spheroids
A high-throughput screen of multi-cell type tumor spheroids was designed to identify active combinations of targeted small molecules and PI3K pathway inhibitors. Complex spheroids include a stromal component modeled by human endothelial cells (HUVEC) and fibroblasts modeled by human mesenchymal stem cells (MSCs). The concentration ranges selected for each drug and investigational agent were based upon clinically achievable concentrations if the clinical Cmax of the agent was known.
Compounds. The drugs and investigational agents: inavolisib (NSC800729), alpelisib (NSC765974), duvelisib (NSC772469), copanlisib (NSC816437), ipatasertib (NSC767898), afuresertib (NSC778305), talazoparib (NSC767125), sapanisertib (NSC764658), selumetinib (NSC741078), tovorafenib (DAY101, NSC766906), vemurafenib (NSC761431), ravoxertinib (NSC781343), sotorasib (NSC818433), MRTX1133 (NSC 836407), abemaciclib (NSC 768073), palbociclib (NSC758247), venetoclax (NSC 766270), SY5609 (NSC837396), enzalutamide (NSC755605), and darolutamide (NSC825331), were obtained from the National Cancer Institute (NCI) Developmental Therapeutics Program Chemical Repository. The FDA-approved anticancer drug set is available from the NCI Developmental Therapeutics Program. […] The stock solutions were prepared in dimethyl sulfoxide (DMSO, Sigma-Aldrich, St. Louis, MO, cat. D2650) at 800-fold the tested concentration and stored at -70 degrees C prior to their use. All drugs and investigational agents were tested over a range starting from a high concentration at or near the clinical Cmax and decreasing in half-log increments. If the clinical Cmax for an agent had not been determined, the highest concentration tested was 10 microM.
Cell Culture. All cells were maintained in an incubator at 37 degrees C and 5% CO2 with 95% humidity. The PDC lines were cultured according to standard operating procedures established by the NCI PDMR (https://pdmr.cancer.gov/sops/default.htm). All PDCs were thawed and cultured in Matrigel-coated flasks prepared with a working solution of 1X Ham's F-12 nutrient mix, without supplementation (Invitrogen, Waltham, MA, cat. 11765054), 100 U/mL penicillin-streptomycin (Invitrogen, cat. 15140122), and 2.5% Matrigel (Corning Inc., Corning, NY, cat. 354248) for the first three passages. The 354836-022-R-J1-PDC, 475296-252-R-J1-PDC, and 997726-040-R-J2-PDC lines were cultured in 6A media, which includes advanced DMEM/F-12 (Thermo Fisher Scientific, cat. 12634028), 10 mM HEPES (Thermo Fisher Scientific, cat. 15630080), 1X GlutaMAX supplement (Thermo Fisher Scientific, cat. 35050061), 0.1 mg/mL primocin (InvivoGen, San Diego, CA, cat. ant-pm-2), 10% defined fetal bovine serum, heat inactivated (HyClone Laboratories Inc., Logan, UT, cat. SH30070.03HI), 50% L-WRN conditioned media (ATCC, cat. CRL-3276), 1.25 mM N-Acetyl-L-cysteine (Sigma-Aldrich, cat. A9165), 10 mM nicotinamide (Sigma-Aldrich, cat. N0636), 1X B-27 supplement (Thermo Fisher Scientific, cat. 17504044), 1X N-2 supplement (Thermo Fisher Scientific, cat. 17502048), and 10 microM Y-27632 dihydrochloride (Tocris Bioscience, Bristol, United Kingdom, cat. 1254). The 624824-186-R-J2-PDC line was cultured in 6C/Colon 1B media, which includes all 6A media components plus 50 ng/mL human EGF recombinant protein (Thermo Fisher Scientific, cat. PHG0311). […]

[1] = compound alone, run of 04/24/2023
[2] = compound alone, run of 04/25/2023
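Further: spheroids exposed to agents for seven days before reading.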
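Wherever viability, T/C is given: percent of vehicle control luminescence where 100% = DMSO treated spheroids.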

Compound	viability, T/C (compound 0.000316 µM)	viability, T/C (compound 0.001 µM)	viability, T/C (compound 0.00316 µM)	viability, T/C (compound 0.01 µM)	viability, T/C (compound 0.0316 µM)	viability, T/C (compound 0.1 µM)	IC50 (curve of compound)	viability, T/C (compound 0.316 µM)	viability, T/C (compound 1 µM)	viability, T/C (compound 3.16 µM)	viability, T/C (compound 10 µM)	IC50 [1]	IC50 [2]	viability, T/C (compound 0.00949 µM)	viability, T/C (compound 0.03 µM)	viability, T/C (compound 0.0949 µM)	viability, T/C (compound 0.3 µM)	viability, T/C (compound 0.949 µM)	viability, T/C (compound 3 µM)
CC(=O)c1c(C)c2cnc(Nc3ccc(N4CCNCC4)cn3)nc2n(C2CCCC2)c1=O	101% [middle of 4 runs]	102% [middle of 4 runs]	115% [middle of 4 runs]	97.2% [middle of 4 runs]	100% [middle of 4 runs]	111% [middle of 4 runs]	> 0.1 µM	–	–	–	–	–	–	–	–	–	–	–	–
CC(C)NCC(C(=O)N1CCN(c2ncnc3c2C(C)CC3O)CC1)c1ccc(Cl)cc1 (configuration not stated)	–	–	–	–	95.2% and 106% (2×) and 98.2%	–	1.06 µM [middle of 4 runs]	86% [middle of 4 runs]	48% [middle of 4 runs]	29.7% [middle of 4 runs]	16.6% and 15.3% (2×) and 14.4%	–	–	–	–	–	–	–	–
CC(C)n1nc(-c2ccc3oc(N)nc3c2)c2c(N)ncnc21	111% [middle of 4 runs]	102% [middle of 4 runs]	97.9% [middle of 4 runs]	89.7% [middle of 4 runs]	78.6% [middle of 4 runs]	34% [middle of 4 runs]	63.4 nM [middle of 4 runs]	–	–	–	–	–	–	–	–	–	–	–	–
CC(Cn1ccc(-c2ccc(C#N)c(Cl)c2)n1)NC(=O)c1cc(C(C)O)[nH]n1 (configuration not stated)	–	–	–	–	108% [middle of 4 runs]	94.8% [middle of 4 runs]	> 10 µM	105% [middle of 4 runs]	104% [middle of 4 runs]	88.8% [middle of 4 runs]	81.1% [middle of 4 runs]	–	–	–	–	–	–	–	–
CC(Nc1ccc2c(c1)OCCn1cc(N3C(=O)OCC3C(F)F)nc1-2)C(N)=O (configuration not stated)	–	–	104% [middle of 8 runs]	99.7% [middle of 8 runs]	106% [middle of 8 runs]	95.2% [middle of 8 runs]	–	81.1% [middle of 8 runs]	73.8% [middle of 8 runs]	–	–	> 1 µM	–	–	–	–	–	–	–
CC(Nc1ncnc2nc[nH]c12)c1cc2cccc(Cl)c2c(=O)n1-c1ccccc1 (configuration not stated)	–	–	–	–	104% [middle of 8 runs]	104% [middle of 8 runs]	–	103% [middle of 8 runs]	97.5% [middle of 8 runs]	97.1% [middle of 8 runs]	90.1% [middle of 8 runs]	–	> 10 µM	–	–	–	–	–	–
CC1(C)CCC(CN2CCN(c3ccc(C(=O)NS(=O)(=O)c4ccc(NCC5CCOCC5)c([N+](=O)[O-])c4)c(Oc4cnc5[nH]ccc5c4)c3)CC2)=C(c2ccc(Cl)cc2)C1	–	–	–	–	102% (2×) and 94.5% and 111%	101% (2×) and 96.3% and 98.1%	> 10 µM and 4.88 µM and 5.19 µM	110% [middle of 4 runs]	98.5% [middle of 4 runs]	89% [middle of 4 runs]	–	–	–	–	–	–	–	–	–
CC1(C)CCC(Nc2ncc(C(F)(F)F)c(-c3c[nH]c4c(P(C)(C)=O)c(C#N)ccc34)n2)CN1 (configuration not stated)	–	–	–	–	30.3% [middle of 4 runs]	27.1% [middle of 4 runs]	< 0.0316 µM	32.2% [middle of 4 runs]	36.1% [middle of 4 runs]	39.7% (2×) and 40.8% and 38.2%	5.52% [middle of 4 runs]	–	–	–	–	–	–	–	–
CCCS(=O)(=O)Nc1ccc(F)c(C(=O)c2c[nH]c3ncc(-c4ccc(Cl)cc4)cc23)c1F	–	–	–	–	103% (2×) and 105% and 102%	108% [middle of 4 runs]	5.33 µM [middle of 4 runs]	112% [middle of 4 runs]	110% [middle of 4 runs]	91.3% [middle of 4 runs]	0.48% [middle of 4 runs]	–	–	–	–	–	–	–	–
CCN1CCN(Cc2ccc(Nc3ncc(F)c(-c4cc(F)c5nc(C)n(C(C)C)c5c4)n3)nc2)CC1	–	–	107% [middle of 4 runs]	96.7% [middle of 4 runs]	103% [middle of 4 runs]	103% [middle of 4 runs]	> 1 µM	109% [middle of 4 runs]	117% [middle of 4 runs]	–	–	–	–	–	–	–	–	–	–
CNC(=O)c1ccc(N2C(=S)N(c3ccc(C#N)c(C(F)(F)F)c3)C(=O)C2(C)C)cc1F	–	–	–	–	107% (2×) and 95.9% and 101%	98.2% [middle of 4 runs]	> 10 µM	107% [middle of 4 runs]	105% [middle of 4 runs]	92.6% and 104% (2×) and 108%	91% [middle of 4 runs]	–	–	–	–	–	–	–	–
COc1c(OCCCN2CCOCC2)ccc2c3n(c(=NC(=O)c4cnc(N)nc4)nc12)CCN3	–	–	108% [middle of 8 runs]	103% [middle of 8 runs]	97.5% [middle of 8 runs]	64.5% [middle of 8 runs]	–	18.6% [middle of 8 runs]	3.42% [middle of 8 runs]	–	–	–	144 nM [middle of 7 runs]	–	–	–	–	–	–
C[C@@H](NC(=O)c1ncnc(N)c1Cl)c1ncc(C(=O)Nc2cc(C(F)(F)F)c(Cl)cn2)s1	–	–	–	–	105% [middle of 4 runs]	98.5% [middle of 4 runs]	> 10 µM	103% [middle of 4 runs]	106% and 107% (2×) and 91.5%	114% [middle of 4 runs]	117% [middle of 4 runs]	–	–	–	–	–	–	–	–
Cc1nc(NC(=O)N2CCCC2C(N)=O)sc1-c1ccnc(C(C)(C)C(F)(F)F)c1 (configuration not stated)	–	–	–	–	103% [middle of 8 runs]	101% [middle of 8 runs]	–	95.9% [middle of 8 runs]	77.4% [middle of 8 runs]	60% [middle of 8 runs]	37.3% [middle of 8 runs]	5.36 µM [middle of 8 runs]	–	–	–	–	–	–	–
Cn1cnc2c(F)c(Nc3ccc(Br)cc3Cl)c(C(=O)NOCCO)cc21	–	–	–	–	–	–	> 3 µM	–	–	–	–	–	–	108% and 98.8% (2×) and 95.3%	96.8% [middle of 4 runs]	99.2% [middle of 4 runs]	94.5% [middle of 4 runs]	103% [middle of 4 runs]	84.9% [middle of 4 runs]
Cn1nccc1Nc1nccc(-c2ccn(C(CO)c3ccc(Cl)c(F)c3)c(=O)c2)n1 (configuration not stated)	–	–	–	–	107% [middle of 4 runs]	104% [middle of 4 runs]	> 10 µM	112% [middle of 4 runs]	110% [middle of 4 runs]	110% [middle of 4 runs]	81.2% [middle of 4 runs]	–	–	–	–	–	–	–	–
Cn1ncnc1[C@H]1c2n[nH]c(=O)c3cc(F)cc(c23)N[C@@H]1c1ccc(F)cc1	105% [middle of 4 runs]	105% [middle of 4 runs]	101% [middle of 4 runs]	92.9% [middle of 4 runs]	73.1% [middle of 4 runs]	63.2% [middle of 4 runs]	> 0.1 µM	–	–	–	–	–	–	–	–	–	–	–	–
